Experimental data published in ChEMBL document CHEMBL6074707, “Targeting Cancer: A New Era in Cancer Therapy through Immune Fitness Modulation and KRAS Degradation” (ACS Med Chem Lett, 2024).

Tests used:
[1] = molecular target: Protein cereblon/GTPase KRas (Homo sapiens, UniProt P01116+Q96SW2, G12D); test: PROTAC activity at CRBN/KRAS G12D mutant in human ASPC1 cells assessed as induction of protein degradation incubated for 24 hrs by Western blot analysis; type: cell-based
[2] = system: Protein cereblon/GTPase KRas (Homo sapiens), P01116+Q96SW2 [G12D]; test: PROTAC activity at CRBN/KRAS G12D mutant in human ASPC1 cells assessed as induction of protein degradation incubated for 24 hrs by Western blot analysis relative to control; type: cell-based
Protein cereblon/GTPase KRas (Homo sapiens), P01116+Q96SW2 [G12D], sequence (P01116 whole entry G12D): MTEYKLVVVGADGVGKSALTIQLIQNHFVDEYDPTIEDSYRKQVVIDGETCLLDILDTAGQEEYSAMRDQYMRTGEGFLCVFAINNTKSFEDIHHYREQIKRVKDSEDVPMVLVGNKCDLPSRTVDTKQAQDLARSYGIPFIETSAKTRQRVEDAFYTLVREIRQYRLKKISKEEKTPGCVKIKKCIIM
Protein cereblon/GTPase KRas (Homo sapiens), P01116+Q96SW2 [G12D], sequence (Q96SW2 whole entry partner): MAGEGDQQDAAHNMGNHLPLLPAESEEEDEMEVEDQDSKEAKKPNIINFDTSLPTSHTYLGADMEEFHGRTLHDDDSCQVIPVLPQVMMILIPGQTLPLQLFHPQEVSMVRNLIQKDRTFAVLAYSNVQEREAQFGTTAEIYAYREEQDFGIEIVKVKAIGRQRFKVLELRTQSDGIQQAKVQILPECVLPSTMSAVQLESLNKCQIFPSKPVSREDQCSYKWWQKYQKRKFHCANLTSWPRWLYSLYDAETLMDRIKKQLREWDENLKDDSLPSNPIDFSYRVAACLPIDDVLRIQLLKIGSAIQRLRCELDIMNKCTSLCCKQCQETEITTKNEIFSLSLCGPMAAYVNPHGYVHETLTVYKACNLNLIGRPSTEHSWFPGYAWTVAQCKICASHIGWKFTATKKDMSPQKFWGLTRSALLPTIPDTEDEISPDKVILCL

Protein cereblon/GTPase KRas, sequence (P01116 whole entry G12D, stated change not applied): as the sequence (P01116 whole entry G12D) above
Protein cereblon/GTPase KRas, sequence (Q96SW2 whole entry, stated change not applied): as the sequence (Q96SW2 whole entry partner) above

| Structure (SMILES) | DC50 [1] [nM] | Emax [2] [%] |
| --- | --- | --- |
| C#Cc1c(F)ccc2cc(O)cc(-c3ncc4c(N5C[C@H]6CC[C@@H](C5)N6)nc(OCCN5CCC(CN6CC7(CCN(c8ccc9c(c8)CN(C8CCC(=O)NC8=O)C9=O)CC7)C6)CC5)nc4c3F)c12 (some centres undefined) | ≤ 100 | > 70 |
| C#Cc1c(F)ccc2cc(O)cc(-c3ncc4c(N5C[C@H]6CC[C@@H](C5)N6)nc(OC[C@@H]5C[C@@H](OC6CCN(c7ccc8c(c7F)CN(C7CCC(=O)NC7=O)C8=O)CC6)CN5C)nc4c3F)c12 (some centres undefined) | ≤ 100 | > 70 |
| C#Cc1c(F)ccc2cc(O)cc(-c3ncc4c(N5C[C@H]6CC[C@@H](C5)N6)nc(OCCN5CCC(CN6CCC7(CC6)CCN(c6ccc8c(c6F)CN(C6CCC(=O)NC6=O)C8=O)CC7)CC5)nc4c3F)c12 (some centres undefined) | ≤ 100 | > 70 |
| C#Cc1c(F)ccc2cc(O)cc(-c3ncc4c(N5C[C@H]6CC[C@@H](C5)N6)nc(OCCN5CCC(CN6CCC7(CC6)CCN(c6ccc8c(c6)CN(C6CCC(=O)NC6=O)C8=O)CC7)CC5)nc4c3F)c12 (some centres undefined) | ≤ 100 | > 70 |
| C#Cc1c(F)ccc2cc(O)cc(-c3ncc4c(N5C[C@H]6CC[C@@H](C5)N6)nc(OC[C@@H]5C[C@@H](OC6CCN(CC7CCN(c8ccc9c(c8)n(C)c(=O)n9C8CCC(=O)NC8=O)CC7)CC6)CN5C)nc4c3F)c12 (some centres undefined) | ≤ 100 | > 70 |
| C#Cc1c(F)ccc2cc(O)cc(-c3ncc4c(N5C[C@H]6CC[C@@H](C5)N6)nc(OCCN5CCC(CC6(F)CCN(CC7CCN(c8ccc9c(c8)CN(C8CCC(=O)NC8=O)C9=O)CC7)CC6)CC5)nc4c3F)c12 (some centres undefined) | > 1000 | 25 |
| C#Cc1c(F)ccc2cc(O)cc(-c3ncc4c(N5C[C@H]6CC[C@@H](C5)N6)nc(OCCN5CCC(CC6CCN(CC7CCN(c8ccc9c(c8F)CN(C8CCC(=O)NC8=O)C9=O)CC7)CC6)CC5)nc4c3F)c12 (some centres undefined) | ≤ 100 | > 70 |
| C#Cc1c(F)ccc2cc(O)cc(-c3ncc4c(N5CC6CCC(C5)N6)nc(OC[C@]56CCCN5[C@H](CN5CCN(CC7CCN(c8ccc9c(c8)CN(C8CCC(=O)NC8=O)C9=O)CC7)CC5)CC6)nc4c3F)c12 (some centres undefined) | ≤ 100 | > 70 |
| C#Cc1c(F)ccc2cc(O)cc(-c3ncc4c(N5C[C@H]6CC[C@@H](C5)N6)nc(OCCN5CCC6(CC5)CCN(CC5CCN(c7ccc8c(c7)CN(C7CCC(=O)NC7=O)C8=O)CC5)CC6)nc4c3F)c12 (some centres undefined) | ≤ 100 | > 70 |
| C#Cc1c(F)ccc2cc(O)cc(-c3ncc4c(N5C[C@H]6CC[C@@H](C5)N6)nc(OCCN5CCC(C(F)(F)C6CCN(CC7CCN(c8ccc9c(c8F)CN(C8CCC(=O)NC8=O)C9=O)CC7)CC6)CC5)nc4c3F)c12 (some centres undefined) | ≤ 100 | > 70 |
| C#Cc1c(F)ccc2cc(O)cc(-c3ncc4c(N5C[C@H]6CC[C@@H](C5)N6)nc(OCCN5CCC(CC6CCN(CC7CCN(c8ccc9c(c8)CN(C8CCC(=O)NC8=O)C9=O)CC7)CC6)CC5)nc4c3F)c12 (some centres undefined) | ≤ 100 | > 70 |
| C#Cc1c(F)ccc2cc(O)cc(-c3ncc4c(N5C[C@H]6CC[C@@H](C5)N6)nc(OCCN5CCC(CC6CCN(CC7CCN(c8ccc9c(c8)n(C)c(=O)n9C8CCC(=O)NC8=O)CC7)CC6)CC5)nc4c3F)c12 (some centres undefined) | ≤ 100 | > 70 |
